Reference: US8034811B2, “Hydroxamic acid esters and pharmaceutical use thereof” (Leo Pharma A/S, priority 2003, dated 2011)

The molecules below were run against T1, human intracellular domain of KDR (VEGF Receptor-2) (Homo sapiens, UniProt P35968) (assay: In vitro KDR kinase assay). Settings: IC50 as molar concentration; GST-KDR-cyt, substrate phospholipase Cγ, ATP 100 μM, 30 min room temperature, time-resolved fluorometry.
T1 construct: A fusion protein containing the intracellular domain (amino acids 793 to 1357) of the KDR and N-terminally tagged to GST; made in house; host or cells: Sf9 insect cells (baculovirus, pDEST20) for GST-KDR-cyt; E. coli BL21 (pGEX-4T-1) for GST-PLCγ
T1 sequence (P35968 794-1356 limits assumed): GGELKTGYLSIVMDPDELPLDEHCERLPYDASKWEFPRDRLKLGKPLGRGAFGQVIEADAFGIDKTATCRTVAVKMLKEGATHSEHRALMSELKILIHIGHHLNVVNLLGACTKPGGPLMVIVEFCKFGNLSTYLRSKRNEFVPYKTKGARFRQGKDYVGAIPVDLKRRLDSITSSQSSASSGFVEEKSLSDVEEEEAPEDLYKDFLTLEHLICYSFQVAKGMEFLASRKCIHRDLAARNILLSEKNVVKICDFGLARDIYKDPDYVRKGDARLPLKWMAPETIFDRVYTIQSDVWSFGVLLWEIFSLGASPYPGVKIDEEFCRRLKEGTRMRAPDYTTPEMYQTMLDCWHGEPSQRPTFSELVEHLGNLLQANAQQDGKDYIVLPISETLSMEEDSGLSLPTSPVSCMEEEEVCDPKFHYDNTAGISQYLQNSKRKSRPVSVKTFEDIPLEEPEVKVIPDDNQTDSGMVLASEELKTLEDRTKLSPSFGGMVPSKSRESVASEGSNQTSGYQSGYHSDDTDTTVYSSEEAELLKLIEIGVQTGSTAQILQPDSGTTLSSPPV
Type: biochemical
Experimental: The intracellular domain of the KDR receptor was used in the in vitro KDR assay. This domain contains the tyrosine kinase domain of KDR, and when expressed in Sf9 cells, this domain is constitutively active i.e. the kinase domain is phosphorylated on tyrosine residues.
The compounds to be tested were dissolved in DMSO at 10 mM, stored at −20° C. and protected from light. The maximum concentration of DMSO in the in vitro assay was 0.1%. Control samples received the same concentration of solvent as the samples treated with the test compounds.
For the kinase assays, black 96 wells MaxiSorp microtiter plates were coated by an overnight incubation with 100 μl/well of a 2.5 μg/ml solution of phospholipase Cγ in TBS buffer (40 mM Tris-HCl, pH 7.4, 20 mM Mg(C2H3O2)2, 0.02% NaN3) at 4° C. The plates were washed 3 times with TBS buffer containing 0.1% Tween-20, and the residual binding sites were masked by incubation with 1% BSA in TBS buffer containing 0.1% Tween-20 for 1 h. The plates were washed again and the test compounds were added at final concentrations up to 10 μM, together with ATP at the final concentration of 100 μM in 50 μl TBS buffer/well. Then, 50 μl of the human intracellular domain of KDR (VEGF Receptor-2) finally diluted 3000-3500 fold were added and were incubated for 30 min at room temperature. The plates were washed and 100 μl of the Europium labelled PY-20 anti-phosphotyrosine antibody (Wallac, FIN) were incubated in each well at the concentration of approximately 114 ng/ml for 2 h. Then, the plates were washed and 100 μl of enhancer solution (Wallac, FIN) were incubated in each well for 5 min in the dark. The plates were read in a Victor 1420 multilabel counter, using a Europium protocol for time-resolved fluorometry (Wallac, FIN): excitation 340 nm, emission 615 nm, sample pulse cycle 400 μs. Fluorescence was measured for 400 μs between flashes after a delay time of 400 μs. The background measured in the absence of enzyme was subtracted from all samples. The molar concentrations that inhibited 50% of the maximal enzymatic activity (IC50) were calculated from the dose-response curve, by fitting a straight line between the two concentrations immediately above and below the 50% inhibition point (i.e. by solving the equation y=a+bx).

Row | Compound | IC50 [nM]
1 | N#Cc1ccc(CONC(=O)c2ccccc2NCc2ccc(=O)[nH]c2)cc1 [compound 247] | 50.1
2 | O=C(NOCC1CCCO1)c1ccccc1NCc1ccncc1 (stereo not shown) [Compound 135, 2-[(Pyridin-4-ylmethyl)-amino]-N-(tetrahydro-furan-2-ylmethoxy)-benzamide] | 79.4
3 | O=C(NOCc1ccccc1)c1cccnc1NCc1ccncc1 [Compound 33, N-Benzyloxy-2-2-[(pyridin-4-ylmethyl)-amino]-nicotinamide] | 100
4 | O=C(NOCc1ccc(F)cc1C(F)(F)F)c1ccccc1NCc1ccncc1 [Compound 59, N-(4-Fluoro-2-trifluoromethyl-benzyloxy)-2-[(pyridin-4-ylmethyl)-amino]-benzamide] | 31.6
5 | O=C(NOCc1ccccc1)c1ccccc1NCc1ccnc2ccccc12 [compound 230] | 25.1
6 | O=C(NOCc1ccccc1F)c1ccccc1NCc1ccncc1 [Compound 20, N-(2-Fluoro-benzyloxy)-2-[(pyridin-4-ylmethyl)-amino]-benzamide] | 31.6
7 | COc1ccc(CNc2ccccc2C(=O)NOCc2ccc(C#N)cc2)cn1 [compound 237] | 79.4
8 | COc1ccccc1CONC(=O)c1ccccc1NCc1ccncc1 [Compound 64, N-(2-Methoxy-benzyloxy)-2-[(pyridin-4-ylmethyl)-amino]-benzamide] | 50.1
9 | O=C(NOCc1cccc(I)c1)c1ccccc1NCc1ccncc1 [Compound 46, N-(3-Iodo-benzyloxy)-2-[(pyridin-4-ylmethyl)-amino]-benzamide] | 63.1
10 | O=C(NOCc1ccccc1C#CCO)c1ccccc1NCc1ccncc1 [Compound 52, N-[2-(3-Hydroxy-prop-1-ynyl)-benzyloxy]-2-[(pyridin-4-ylmethyl)-amino]-benzamide] | 63.1
11 | O=C(NOCc1cnc(Cl)s1)c1ccccc1NCc1ccncc1 [Compound 106, N-(2-Chloro-thiazol-5-ylmethoxy)-2-[(pyridin-4-ylmethyl)-amino]-benzamide] | 50.1
12 | N#Cc1ccc(CONC(=O)c2ccccc2NCc2ccncc2)cc1Br [Compound 77, N-(3-Bromo-4-cyano-benzyloxy)-2-[(pyridin-4-ylmethyl)-amino]-benzamide] | 39.8
13 | O=C(NOCC1CCCCC1)c1ccccc1NCc1ccncc1 [Compound 120, N-Cyclohexylmethoxy-2-[(pyridin-4-ylmethyl)-amino]-benzamide] | 39.8
14 | COc1ccc(CNc2ncccc2C(=O)NOCc2ccc(OC)cc2)cc1 [Compound 35, 2-(4-Methoxy-benzylamino)-N-(4-methoxy-benzyloxy)-nicotinamide] | 1000
15 | O=C(NOCC12CC3CC(CC(C3)C1)C2)c1ccccc1NCc1ccncc1 [Compound 132, N-(Adamantan-1-ylmethoxy)-2-[(pyridin-4-ylmethyl)-amino]-benzamide] | 100
16 | O=C(NOCc1ccc(F)cc1)c1ccccc1NCc1ccncc1 [Compound 22, N-(4-Fluoro-benzyloxy)-2-[(pyridin-4-ylmethyl)-amino]-benzamide] | 25.1
17 | O=C(NOCc1cc(Cl)nc(Cl)c1)c1ccccc1NCc1ccncc1 [Compound 104, N-(2,6-Dichloro-pyridin-4-ylmethoxy)-2-[(pyridin-4-ylmethyl)-amino]-benzamide] | 63.1
18 | O=C(NOCc1csc(-c2ccccc2)n1)c1ccccc1NCc1ccncc1 [Compound 107, N-(2-Phenyl-thiazol-4-ylmethoxy)-2-[(pyridin-4-ylmethyl)-amino]-benzamide] | 100
19 | CS(=O)(=O)Nc1cc(CNc2ccccc2C(=O)NOCC2CCCC2)ccn1 [Compound 208, N-Cyclopentylmethoxy-2-[(2-methanesulfonylamino-pyridin-4-ylmethyl)-amino]-benzamide] | 79.4
20 | O=C(NOCc1ccccc1I)c1cccnc1NCc1ccncc1 [Compound 160, N-(2-Iodo-benzyloxy)-2-[(pyridin-4-ylmethyl)-amino]-nicotinamide] | 63.1
21 | O=C(NOc1ccccc1)c1ccccc1NCc1ccncc1 [Compound 29, N-Phenoxy-2-[(pyridin-4-ylmethyl)-amino]-benzamide] | 126
22 | CC(Nc1ccccc1C(=O)NOCc1ccc(C#N)cc1)c1ccncc1 (stereo not shown) [compound 244] | 63.1
23 | COc1ccc(CONC(=O)c2cccnc2NCc2ccc(F)cc2)cc1 [Compound 34, 2-(4-Fluoro-benzylamino)-N-(4-methoxy-benzyloxy)-nicotinamide] | 794
24 | O=C(NOCc1ccc2ccccc2n1)c1ccccc1NCc1ccncc1 [Compound 28, 2-[(Pyridin-4-ylmethyl)-amino]-N-(quinolin-2-ylmethoxy)-benzamide] | 100
25 | O=C(NOCc1ccc(OC(F)(F)F)cc1)c1ccccc1NCc1ccncc1 [Compound 68, 2-[(Pyridin-4-ylmethyl)-amino]-N-(4-trifluoromethoxy-benzyloxy)-benzamide] | 79.4
26 | O=C(NOCc1ccc(Br)cc1)c1ccccc1NCc1ccncc1 [Compound 44, N-(4-Bromo-benzyloxy)-2-[(pyridin-4-ylmethyl)-amino]-benzamide] | 50.1

Other lines, results leading:

Row | IC50 [nM] | Compound
27 | 25.1 | CC1(C)[C@H]2CC[C@@H](CONC(=O)c3ccccc3NCc3ccncc3)[C@@H]1C2 [Compound 134]
28 | 7.94 | O=C(NOCCC1CCCC1)c1ccccc1NCc1ccncc1 [Compound 126, N-(2-Cyclopentyl-ethoxy)-2-[(pyridin-4-ylmethyl)-amino]-benzamide]
29 | 20 | O=C(NOCC1C[C@@H]2CC[C@H]1C2)c1ccccc1NCc1ccncc1 (stereo in doubt) [Compound 133, N-(Bicyclo[2.2.1]hept-2-ylmethoxy)-2-[(pyridin-4-ylmethyl)-amino]-benzamide]
30 | 15.8 | Cc1ccc(CONC(=O)c2ccccc2NCc2ccncc2)cc1 [Compound 47, N-(4-Methyl-benzyloxy)-2-[(pyridin-4-ylmethyl)-amino]-benzamide]
31 | 15.8 | O=C(NOCc1ccccc1Cl)c1ccccc1NCc1ccncc1 [Compound 12, N-(2-Chloro-benzyloxy)-2-[(pyridin-4-ylmethyl)-amino]-benzamide]
32 | 7.94 | O=C(NOCC1CCCC1)c1cccnc1NCc1ccncc1 [Compound 164, N-Cyclopentylmethoxy-2-[(pyridin-4-ylmethyl)-amino]-nicotinamide]
33 | 15.8 | O=C(NOCC1CC=CCC1)c1ccccc1NCc1ccncc1 (stereo not shown) [Compound 128, N-(Cyclohex-3-enylmethoxy)-2-[(pyridin-4-ylmethyl)-amino]-benzamide]
34 | 6.31 | COc1cc(F)ccc1CONC(=O)c1ccccc1NCc1ccncc1 [Compound 39, N-(4-Fluoro-2-methoxy-benzyloxy)-2-[(pyridin-4-ylmethyl)-amino]-benzamide]
35 | 7.94 | Nc1cc(CNc2ccccc2C(=O)NOCC2CCCC2)ccn1 [compound 229]
36 | 20 | O=C(NOCc1c(F)cccc1C(F)(F)F)c1ccccc1NCc1ccncc1 [Compound 60, N-(2-Fluoro-6-trifluoromethyl-benzyloxy)-2-[(pyridin-4-ylmethyl)-amino]-benzamide]
37 | 10 | CC1CC=CCC1CONC(=O)c1ccccc1NCc1ccncc1 (stereo not shown) [Compound 129, N-(6-Methyl-cyclohex-3-enylmethoxy)-2-[(pyridin-4-ylmethyl)-amino]-benzamide]
